Measured values published in patent US10988477B2 (Merck Patent GmbH, priority 2018, dated 2021).
Read-outs that look alike come from different tables or passages of the source.

Experiments:
[1] = target: intracellular GCN2 (phosphorylation of the GCN2 substrate eIF2α) (Homo sapiens, UniProt Q9P2K8); assay: GCN2 cellular inhibition assay (AlphaScreen SureFire P-eIF2α Ser51, borrelidin-treated U2OS cells); type: cell-based
Procedure, shortened: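 U2OS, overnight attach; cpd 4-fold serial dil. from 40 μM final; borrelidin 10 μM, 1 h 37 °C/5% CO2; lyse; AlphaScreen P-eIF2α Ser51 (acceptor 2 h, donor overnight, RT, dark); % inhib. vs borrelidin-only.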

[2] = target: GCN2 kinase (Homo sapiens, UniProt Q9P2K8); assay: GCN2 enzyme inhibition assay (Transcreener ADP2 fluorescence polarization); type: biochemical; settings: 280 μM ATP
Procedure, shortened: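 Inhibition of 4 nM GCN2 was measured with compound up to 8 μM final, ATP 280 μM and (RS)7 peptide 200 μM over a 1 h, 25 °C reaction. ADP FP readout; IC50 and Ki(app) calculated from percent inhibition.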

[3] = compounds of Formula IV, biomarker assay, phosphorylated eIF2α Ser51 in borrelidin-treated U2OS cells
[4] = Enzyme activity for compounds of Formula IV, Ki(app), 25° C.
[5] = compounds of Formula III, U2OS cells, 10 μM borrelidin, 1 h, read-out: GCN2 Biomarker (IC50)
[6] = compounds of Formula III, 4 nM GCN2 kinase
[7] = compounds of Formula II, biomarker assay, phosphorylated eIF2α Ser51 in borrelidin-treated U2OS cells
[8] = compounds of Formula II, 4 nM GCN2 kinase

Chain of GCN2 kinase (Q9P2K8 whole entry): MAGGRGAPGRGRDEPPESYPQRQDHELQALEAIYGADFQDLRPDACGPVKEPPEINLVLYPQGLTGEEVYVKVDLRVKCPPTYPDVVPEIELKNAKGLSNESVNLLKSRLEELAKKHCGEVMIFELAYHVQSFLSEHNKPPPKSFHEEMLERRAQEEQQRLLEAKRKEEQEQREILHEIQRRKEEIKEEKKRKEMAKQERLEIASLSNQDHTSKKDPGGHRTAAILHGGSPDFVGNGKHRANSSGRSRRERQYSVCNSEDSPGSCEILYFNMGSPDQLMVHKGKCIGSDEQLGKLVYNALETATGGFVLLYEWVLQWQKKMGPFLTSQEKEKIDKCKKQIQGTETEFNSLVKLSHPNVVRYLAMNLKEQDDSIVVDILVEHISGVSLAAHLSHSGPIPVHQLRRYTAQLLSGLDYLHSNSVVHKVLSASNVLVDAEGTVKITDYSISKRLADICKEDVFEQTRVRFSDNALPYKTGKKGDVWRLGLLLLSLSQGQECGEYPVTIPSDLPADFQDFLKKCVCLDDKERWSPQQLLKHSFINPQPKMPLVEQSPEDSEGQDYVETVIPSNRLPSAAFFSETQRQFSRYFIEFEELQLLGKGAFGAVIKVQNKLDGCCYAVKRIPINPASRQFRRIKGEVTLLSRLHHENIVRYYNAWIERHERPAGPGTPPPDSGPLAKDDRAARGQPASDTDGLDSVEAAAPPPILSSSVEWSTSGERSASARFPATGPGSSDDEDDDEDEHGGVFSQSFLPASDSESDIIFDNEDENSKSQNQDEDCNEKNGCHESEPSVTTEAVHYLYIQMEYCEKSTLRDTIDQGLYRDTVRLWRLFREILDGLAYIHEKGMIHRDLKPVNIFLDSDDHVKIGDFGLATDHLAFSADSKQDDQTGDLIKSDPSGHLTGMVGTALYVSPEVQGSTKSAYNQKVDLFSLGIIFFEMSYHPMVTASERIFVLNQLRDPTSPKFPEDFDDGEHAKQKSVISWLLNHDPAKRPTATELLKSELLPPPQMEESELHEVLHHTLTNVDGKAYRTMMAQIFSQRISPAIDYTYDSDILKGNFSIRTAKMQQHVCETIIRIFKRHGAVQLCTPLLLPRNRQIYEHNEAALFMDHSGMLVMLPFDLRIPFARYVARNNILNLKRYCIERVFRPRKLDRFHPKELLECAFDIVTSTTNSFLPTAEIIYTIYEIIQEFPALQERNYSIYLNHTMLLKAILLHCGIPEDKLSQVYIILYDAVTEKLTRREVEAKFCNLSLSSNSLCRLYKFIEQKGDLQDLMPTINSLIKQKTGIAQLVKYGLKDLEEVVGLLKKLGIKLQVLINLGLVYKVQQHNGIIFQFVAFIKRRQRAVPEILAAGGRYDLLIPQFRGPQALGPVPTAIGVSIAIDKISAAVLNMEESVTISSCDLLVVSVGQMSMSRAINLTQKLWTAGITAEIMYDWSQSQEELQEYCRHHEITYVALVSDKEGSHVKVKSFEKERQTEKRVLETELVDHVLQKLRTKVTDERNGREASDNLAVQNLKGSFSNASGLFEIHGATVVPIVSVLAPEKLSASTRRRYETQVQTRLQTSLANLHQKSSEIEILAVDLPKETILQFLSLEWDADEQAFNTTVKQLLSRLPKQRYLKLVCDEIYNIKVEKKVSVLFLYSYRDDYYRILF
Chain of intracellular GCN2 (phosphorylation of the GCN2 substrate eIF2α) (Q9P2K8 whole entry): as above

| IC50 [1, 3] [nM] | Ki [2, 4] [nM] | IC50 [1, 7] [nM] | Ki [2, 8] [nM] | Structure (SMILES) | also measured |
| --- | --- | --- | --- | --- | --- |
| > 5000 | 100 to 1000 | – | – | CN(C1CCCN(c2ccnc(-c3cnc4cnc(C(F)F)cn34)n2)C1)S(C)(=O)=O (stereo not shown) [IV-168, N-(1-(2-(6-(Difluoromethyl)imidazo[1,2-a]pyrazin-3-yl)pyrimidin-4-yl)piperidin-3-yl)-N-methylmethanesulfonamide] | – |
| 500 to 5000 | 10 to 100 | – | – | CC1C(C(N)=O)CCCN1c1ccnc(-c2cnc3cnc(C(F)F)cn23)n1 (stereo not shown) [IV-54, 1-(2-(6-(Difluoromethyl)imidazo[1,2-a]pyrazin-3-yl)pyrimidin-4-yl)-2-methylpiperidine-3-carboxamide] | – |
| 500 to 5000 | < 10 | – | – | CC(=O)N1CCN(c2cccc(-c3cnc4cnc(-n5cccn5)cn34)n2)CC1 [IV-209, 1-(4-(6-(6-(1H-Pyrazol-1-yl)imidazo[1,2-a]pyrazin-3-yl)pyridin-2-yl)piperazin-1-yl)ethan-1-one] | – |
| 500 to 5000 | 100 to 1000 | – | – | CC1C(c2cn[nH]c2)CCCN1c1ccnc(-c2cnc3cnc(C(F)(F)F)cn23)n1 (single isomer, unassigned) [IV-419, 3-(4-(2-Methyl-3-(1H-pyrazol-4-yl)piperidin-1-yl)pyrimidin-2-yl)-6-(trifluoromethyl)imidazo[1,2-a]pyrazine] | – |
| 500 to 5000 | 100 to 1000 | – | – | CC1CN(c2ccnc(-c3cnc4cnc(C(F)(F)F)cn34)n2)CC(c2cn[nH]c2)N1 (single isomer, unassigned) [IV-460, 3-(4-(3-Methyl-5-(1H-pyrazol-4-yl)piperazin-1-yl)pyrimidin-2-yl)-6-(trifluoromethyl)imidazo[1,2-a]pyrazine] | – |
| > 5000 | 100 to 1000 | – | – | NCC(=O)Nc1cccc(-c2ccnc(-c3cnc4cnc(C(F)F)cn34)n2)c1 [IV-167, 2-Amino-N-(3-(2-(6-(difluoromethyl)imidazo[1,2-a]pyrazin-3-yl)pyrimidin-4-yl)phenyl)acetamide] | – |
| 500 to 5000 | < 10 | – | – | CC1CN(c2cc(OCCO)nc(-c3cnc4cnc(C(F)(F)F)cn34)n2)C(C)C(c2cn[nH]c2)N1 (stereo not shown) [IV-640, 2-((6-(2,5-Dimethyl-3-(1H-pyrazol-4-yl)piperazin-1-yl)-2-(6-(trifluoromethyl)imidazo[1,2-a]pyrazin-3-yl)pyrimidin-4-yl)oxy)ethan-1-ol] | – |
| < 500 | – | – | – | C[C@H]1C[C@@H](c2cn[nH]c2)CN(c2ccnc(-c3cnc4cnc(C(F)(F)F)cn34)n2)C1 [IV-771, 3-(4-((3S,5S)-3-methyl-5-(1H-pyrazol-4-yl)piperidin-1-yl)pyrimidin-2-yl)-6-(trifluoromethyl)imidazo[1,2-a]pyrazine] | IC50 ([2]; compounds of Formula IV, 4 nM GCN2 kinase): < 10 nM |
| < 500 | < 10 | – | – | Brc1cn2c(-c3nccc(N4CCCC(c5cn[nH]c5)C4)n3)cnc2cn1 (single isomer, unassigned) [IV-360, 3-(4-(3-(1H-Pyrazol-4-yl)piperidin-1-yl)pyrimidin-2-yl)-6-bromoimidazo[1,2-a]pyrazine] | – |
| > 5000 | 100 to 1000 | – | – | CC(NS(C)(=O)=O)C1CN(c2ccnc(-c3cnc4cnc(C(F)F)cn34)n2)CCO1 (stereo not shown) [IV-62, N-(1-(4-(2-(6-(Difluoromethyl)imidazo[1,2-a]pyrazin-3-yl)pyrimidin-4-yl)morpholin-2-yl)ethyl)methanesulfonamide] | – |

Further lines, the compound ahead of its results:

| Structure (SMILES) | IC50 [1, 3] [nM] | Ki [2, 4] [nM] | IC50 [1, 7] [nM] | Ki [2, 8] [nM] | also measured |
| --- | --- | --- | --- | --- | --- |
| CC(=O)N1CCN(c2cc(-c3cnn4ccc(C(F)F)nc34)ncn2)CC1 [III-1, 1-[4-[6-[5-(Difluoromethyl)pyrazolo[1,5-a]pyrimidin-3-yl]pyrimidin-4-yl]piperazin-1-yl]ethanone] | – | – | – | – | IC50 [1, 5]: > 5000 nM; Ki [2, 6]: 10 to 1000 nM |
| CS(=O)(=O)NC[C@@H]1CN(c2cc(-c3cnn4ccc(C(F)F)nc34)ncn2)CCO1 [III-4, N-[[(2S)-4-[6-[5-(Difluoromethyl)pyrazolo[1,5-a]pyrimidin-3-yl]pyrimidin-4-yl]morpholin-2-yl]methyl]methanesulfonamide] | – | – | – | – | IC50 [1, 5]: < 500 nM; Ki [2, 6]: < 10 nM |
| NS(=O)(=O)N1CC2(CN(c3cc(-c4cnc5ccc(C(F)F)nn45)ncn3)CCO2)C1 [II-334, 8-(6-(6-(Difluoromethyl)imidazo[1,2-b]pyridazin-3-yl)pyrimidin-4-yl)-5-oxa-2,8-diazaspiro[3.5]nonane-2-sulfonamide] | – | – | 500 to 5000 | 10 to 1000 | – |
| CS(=O)(=O)NC[C@@H]1CN(c2cc(-c3cnc4ccc(C(F)F)nn34)ncn2)CC(=O)N1 [II-25, (S)—N-((4-(6-(6-(Difluoromethyl)imidazo[1,2-b]pyridazin-3-yl)pyrimidin-4-yl)-6-oxopiperazin-2-yl)methyl)methanesulfonamide] | – | – | > 5000 | 10 to 1000 | – |
| CS(=O)(=O)N1CCCC2(CN(c3cc(-c4cnc5ccc(C(F)F)nn45)ncn3)C2)C1 [II-279, 6-(Difluoromethyl)-3-(6-(6-(methylsulfonyl)-2,6-diazaspiro[3.5]nonan-2-yl)pyrimidin-4-yl)imidazo[1,2-b]pyridazine] | – | – | > 5000 | 10 to 1000 | – |
| OC[C@@H]1C[C@@H](C(F)(F)F)CN(c2cc(-c3cnc4ccc(C(F)F)nn34)ncn2)C1 [II-314, ((3R,5R)-1-(6-(6-(Difluoromethyl)imidazo[1,2-b]pyridazin-3-yl)pyrimidin-4-yl)-5-(trifluoromethyl)piperidin-3-yl)methanol] | – | – | > 5000 | 10 to 1000 | – |
| CC1C(CNS(C)(=O)=O)CN(c2cc(-c3cnc4ccc(C(F)F)nn34)ncn2)CC1(F)F (stereo not shown) [II-382, N-((1-(6-(6-(Difluoromethyl)imidazo[1,2-b]pyridazin-3-yl)pyrimidin-4-yl)-5,5-difluoro-4-methylpiperidin-3-yl)methyl)methanesulfonamide] | – | – | 500 to 5000 | 10 to 1000 | – |
| O=C(NCCO)N1CCCC(c2cc(-c3cnc4ccc(C(F)F)nn34)ncn2)C1 (stereo not shown) [II-178, 3-(6-(6-(difluoromethyl)imidazo[1,2-b]pyridazin-3-yl)pyrimidin-4-yl)-N-(2-hydroxyethyl)piperidine-1-carboxamide] | – | – | 500 to 5000 | 10 to 1000 | – |
| CC1CN(c2cc(-c3cnc4ccc(C(F)(F)F)nn34)ncn2)C(C)C(c2cn[nH]c2)N1 (stereo not shown) [II-705, 3-(6-(2,5-Dimethyl-3-(1H-pyrazol-4-yl)piperazin-1-yl)pyrimidin-4-yl)-6-(trifluoromethyl)imidazo[1,2-b]pyridazine] | – | – | < 500 | < 10 | – |
| CS(C)(=O)=NC1CCCN(c2cc(-c3cnc4ccc(C(F)F)nn34)ncn2)C1C(F)F (stereo not shown) [II-701, [2-(Difluoromethyl)-1-[6-[6-(difluoromethyl)imidazo[1,2-b]pyridazin-3-yl]pyrimidin-4-yl]-3-piperidyl]imino-dimethyl-λ^6-sulfanone] | – | – | > 5000 | 10 to 1000 | – |
| CCC1C(CNS(C)(=O)=O)CCCN1c1cc(-c2cnc3ccc(C(F)F)nn23)ncn1 (single isomer, unassigned) [II-417] | – | – | 500 to 5000 | 10 to 1000 | – |
| CC1C2COC(=O)N2CCN1c1cc(-c2cnc3ccc(C(F)F)nn23)ncn1 (stereo not shown) [II-547, 7-(6-(6-(Difluoromethyl)imidazo[1,2-b]pyridazin-3-yl)pyrimidin-4-yl)-8-methylhexahydro-3H-oxazolo[3,4-a]pyrazin-3-one] | – | – | 500 to 5000 | 10 to 1000 | – |
| CS(=O)(=O)NC[C@@H]1CN(c2cc(-c3cnc4ccc(C5CC5)nn34)ncn2)CCO1 [II-249, (S)—N-((4-(6-(6-Cyclopropylimidazo[1,2-b]pyridazin-3-yl)pyrimidin-4-yl)morpholin-2-yl)methyl)methanesulfonamide] | – | – | 500 to 5000 | 10 to 1000 | – |
